Literature values, collected in patent US20070026383A1, “Methods and compositions for extracting membrane proteins” (Quintessence Biosciences, Inc., priority 2005, published 2007).

Legend:
[1] = not given; remark: listed apart in the source

CCc1c2c(nc3ccc(OC(=O)N4CCC(NCCCCC(=O)O)CC4)cc13)-c1cc3c(c(=O)n1C2)COC(=O)C3(O)CC (centres unmarked) [APC, 7-ethyl-10[4-N-(5-aminopentanoic acid)-1piperidino]carbonyloxycamptothecin]
fold weaker antitumor activity compared with SN-38 (relative to SN-38): 500 fold | antitumor activity in vitro [1]: weak antitumor activity

CCc1c2c(nc3ccc(O)cc13)-c1cc3c(c(=O)n1C2)COC(=O)[C@]3(O)CC [SN-38, 7-ethyl-10-hydroxycamptothecin]
fold higher antitumor activity than Irinotecan (relative to Irinotecan): 100-1,000 fold

CCc1c2c(nc3ccc(O[C@@H]4O[C@H](C(=O)O)[C@@H](O)[C@H](O)[C@H]4O)cc13)-c1cc3c(c(=O)n1C2)COC(=O)[C@]3(O)CC [SN-38G, 10-O-glucuronyl-SN-38]
activity of metabolite (glucuronide of SN-38): inactive

CCc1c2c(nc3ccc(OC(=O)N4CCC(N)CC4)cc13)-c1cc3c(c(=O)n1C2)COC(=O)[C@]3(O)CC [NPC, 7-ethyl-10-(4-amino-1-piperidino)carbonyloxycamptothecin]
antitumor activity in vitro [1]: weak antitumor activity
